# Reference: US20240277713A1 (Kadmon Corporation, LLC, priority 2022, published 2024)
# Structures can show the parent of a compound that is named as a salt.
# Assays:
# Solubility = format: physicochemical
# Method: The tablet film consists of polyvinyl alcohol, polyethylene glycol, talc, titanium dioxide and yellow iron oxide. Each 200 mg tablet is a pale-yellow film-coated oblong tablet debossed with “KDM” on one side and “200” on the other side. Tablets are stored at room temperature, 20° C. to 25° C. (68° F. to 77° F.); excursions permitted from 15° C. and 30° C. (59° F. to 86° F.).
# [1] = Toxicokinetics in pregnant Sprague-Dawley rats (Example 1); format: in vivo, rat; details: belumosudil 25 mg base/kg/day oral, GD 17
# [2] = Toxicokinetics in pregnant New Zealand White rabbits (Example 2); format: in vivo, rabbit; details: GD 18
# Method: The study was conducted in two phases: Phase A was a dose range finding tolerance study with non-pregnant rabbits, and Phase B was the pilot developmental toxicity study.
# All fetuses were given the appropriate external examination.
# [3] = Toxicokinetic evaluation in pregnant rats (Example 3); format: in vivo, rat
# From the text: Animals received in-life and postmorten evaluations.
# [4] = Toxicokinetic evaluation in pregnant rabbits (Example 4); format: in vivo, rabbit
# Method: The dose levels for the treated groups were 50, 125, 225, mg base/kg/day at a dose volume of 10 mL/kg. The control group received the vehicle in the same manner as the treated groups. […] Individual doses were based on the most recent body weights.
# Observations of the animals included clinical signs, body weights, food consumption, and anatomical pathology including a uterine examination. […] All fetuses were given an external, visceral, and skeletal examination.
# [5] = Toxicokinetic analysis in rat plasma (Example 5); format: in vivo
# Method: TK animals were dosed for 70 and 14 days for the males and females, respectively. Dosing of TK males and females was initiated simultaneously, continuing to euthanasia. Refrigerated daily aliquots of dosing formulations were brought to room temperature while continuously stirring for at least 30 minutes prior to dosing.
# patients with cGVHD = details: cited from earlier work
# [6] = belumosudil 50 mg base/kg/day oral
# [7] = belumosudil 250 mg base/kg/day oral
# [8] = GD 6, belumosudil 15 mg base/kg oral
# [9] = GD 6, belumosudil 50 mg base/kg oral
# [10] = GD 6, belumosudil 150 mg base/kg oral
# [11] = GD 17, belumosudil 15 mg base/kg oral
# [12] = GD 17, belumosudil 50 mg base/kg oral
# [13] = GD 17, belumosudil 150 mg base/kg oral
# [14] = GD 6, belumosudil 125 mg base/kg oral
# [15] = GD 6, belumosudil 225 mg base/kg oral
# [16] = GD 18, belumosudil 50 mg base/kg oral
# [17] = GD 18, belumosudil 125 mg base/kg oral
# [18] = GD 18, belumosudil 225 mg base/kg oral
# [19] = Day 1, belumosudil 50 mg base/kg, F
# [20] = Day 1, belumosudil 50 mg base/kg, M
# [21] = Day 1, belumosudil 150 mg base/kg, F
# [22] = Day 1, belumosudil 150 mg base/kg, M
# [23] = Day 1, belumosudil 275 mg base/kg, F
# [24] = Day 1, belumosudil 275 mg base/kg, M
# [25] = Day 14, belumosudil 50 mg base/kg, F
# [26] = Day 14, belumosudil 150 mg base/kg, F
# [27] = Day 14, belumosudil 275 mg base/kg, F
# [28] = Day 70, belumosudil 50 mg base/kg, M
# [29] = Day 70, belumosudil 150 mg base/kg, M
# [30] = Day 70, belumosudil 275 mg base/kg, M
smiles,measurement,setting,value
"CC(C)NC(=O)COc1cccc(-c2nc(Nc3ccc4[nH]ncc4c3)c3ccccc3n2)c1 [Belumosudil mesylate, 2-{3-[4-(1H-indazol-5-ylamino)-2-quinazolinyl]phenoxy}-N-(propan-2-yl) acetamide methanesulfonate (1:1)]",solubility in DMSO,Solubility,soluble in DMSO
same,solubility in methanol and DMF,Solubility,slightly soluble in methanol and DMF
same,solubility in water,Solubility,practically insoluble in water
O=C(O)COc1cccc(-c2nc(Nc3ccc4[nH]ncc4c3)c3ccccc3n2)c1 [KD025m2],maternal AUC0-24,[1],1480 ng·h/mL
same,maternal Cmax,[1],127 ng/mL
same,maternal AUC0-24,[2]; [6],2990 ng·h/mL
same,maternal Cmax,[2]; [6],1090 ng/mL
same,maternal AUC0-24,[2]; [7],19700 ng·h/mL
same,maternal Cmax,[2]; [7],3080 ng/mL
same,Mean AUC0-24 in plasma of pregnant rats,[3]; [8],515 ng·h/mL
same,Mean Cmax in plasma of pregnant rats,[3]; [8],76.2 ng/mL
same,Mean AUC0-24 in plasma of pregnant rats,[3]; [9],3050 ng·h/mL
same,Mean Cmax in plasma of pregnant rats,[3]; [9],191 ng/mL
same,Mean AUC0-24 in plasma of pregnant rats,[3]; [10],10500 ng·h/mL
same,Mean Cmax in plasma of pregnant rats,[3]; [10],519 ng/mL
same,Mean AUC0-24 in plasma of pregnant rats,[3]; [11],572 ng·h/mL
same,Mean Cmax in plasma of pregnant rats,[3]; [11],55.6 ng/mL
same,Mean AUC0-24 in plasma of pregnant rats,[3]; [12],3580 ng·h/mL
same,Mean Cmax in plasma of pregnant rats,[3]; [12],350 ng/mL
same,Mean AUC0-24 in plasma of pregnant rats,[3]; [13],11100 ng·h/mL
same,Mean Cmax in plasma of pregnant rats,[3]; [13],972 ng/mL
same,accumulation after multiple dosing of belumosudil,[3]; pregnant rats,No apparent accumulation
same,Mean AUC0-24 in plasma of pregnant rabbits,[4]; [9],4180 ng·h/mL
same,Mean Cmax in plasma of pregnant rabbits,[4]; [9],1170 ng/mL
same,Mean AUC0-24 in plasma of pregnant rabbits,[4]; [14],13600 ng·h/mL
same,Mean Cmax in plasma of pregnant rabbits,[4]; [14],2180 ng/mL
same,Mean AUC0-24 in plasma of pregnant rabbits,[4]; [15],42400 ng·h/mL
same,Mean Cmax in plasma of pregnant rabbits,[4]; [15],3190 ng/mL
same,Mean AUC0-24 in plasma of pregnant rabbits,[4]; [16],2470 ng·h/mL
same,Mean Cmax in plasma of pregnant rabbits,[4]; [16],1120 ng/mL
same,Mean AUC0-24 in plasma of pregnant rabbits,[4]; [17],16700 ng·h/mL
same,Mean Cmax in plasma of pregnant rabbits,[4]; [17],3610 ng/mL
same,Mean AUC0-24 in plasma of pregnant rabbits,[4]; [18],41500 ng·h/mL
same,Mean Cmax in plasma of pregnant rabbits,[4]; [18],4620 ng/mL
same,accumulation after multiple dosing of belumosudil,[4]; pregnant rabbits,no apparent accumulation
same,AUC0-24 in rat plasma,[5]; [19],2110 ng·h/mL
same,Cmax in rat plasma,[5]; [19],135 ng/mL
same,AUC0-24 in rat plasma,[5]; [20],5440 ng·h/mL
same,Cmax in rat plasma,[5]; [20],501 ng/mL
same,AUC0-24 in rat plasma,[5]; [21],6860 ng·h/mL
same,Cmax in rat plasma,[5]; [21],398 ng/mL
same,AUC0-24 in rat plasma,[5]; [22],13600 ng·h/mL
same,Cmax in rat plasma,[5]; [22],686 ng/mL
same,AUC0-24 in rat plasma,[5]; [23],11500 ng·h/mL
same,Cmax in rat plasma,[5]; [23],925 ng/mL
same,AUC0-24 in rat plasma,[5]; [24],21500 ng·h/mL
same,Cmax in rat plasma,[5]; [24],1680 ng/mL
same,AR (Accumulation Ratio) AUC0-24,[5]; [25],0.657
same,AUC0-24 in rat plasma,[5]; [25],1390 ng·h/mL
same,Cmax in rat plasma,[5]; [25],125 ng/mL
same,AR (Accumulation Ratio) AUC0-24,[5]; [26],1.04
same,AUC0-24 in rat plasma,[5]; [26],7110 ng·h/mL
same,Cmax in rat plasma,[5]; [26],523 ng/mL
same,AR (Accumulation Ratio) AUC0-24,[5]; [27],1.80
same,AUC0-24 in rat plasma,[5]; [27],20700 ng·h/mL
same,Cmax in rat plasma,[5]; [27],1480 ng/mL
same,AR (Accumulation Ratio) AUC0-24,[5]; [28],0.750
same,AUC0-24 in rat plasma,[5]; [28],4080 ng·h/mL
same,Cmax in rat plasma,[5]; [28],410 ng/mL
same,AR (Accumulation Ratio) AUC0-24,[5]; [29],0.701
same,AUC0-24 in rat plasma,[5]; [29],9520 ng·h/mL
same,Cmax in rat plasma,[5]; [29],1070 ng/mL
same,AR (Accumulation Ratio) AUC0-24,[5]; [30],1.35
same,AUC0-24 in rat plasma,[5]; [30],28900 ng·h/mL
same,Cmax in rat plasma,[5]; [30],1900 ng/mL
same,accumulation after multiple doses of belumosudil,[5]; rats,less than 2 fold
C=CC(=O)N1CCC[C@@H](n2nc(-c3ccc(Oc4ccccc4)cc3)c3c(N)ncnc32)C1 [ibrutinib],discontinuation rate because of TEAEs,patients with cGVHD,43%
